Test results as given in patent US10703746B2, “Mutant IDH1 inhibitors useful for treating cancer” (THE UNITED STATES OF AMERICA, AS REPRESENTED BY THE …, priority 2014, dated 2020).

Key:
[1] = target: IDH1 R132C (Homo sapiens, UniProt O75874, R132C); assay: IDH1 R132C enzymatic assay (NADPH depletion coupled to diaphorase/resazurin); type: biochemical; settings: enzymatic inhibition, IDH1 R132C
Summary of the method: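 NADPH depletion, read via diaphorase/resazurin coupling, after adding substrate at 0.6 mM α-KG and 0.012 mM NADPH. Beforehand, 0.00032 mg/mL enzyme sat with compound 30 min at room temperature in pH 6.5 potassium phosphate buffer with MgCl2, glycerol and BSA.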

[2] = target: IDH1 R132H (Homo sapiens, UniProt O75874, R132H); assay: IDH1 R132H enzymatic assay (NADPH depletion coupled to diaphorase/resazurin); type: biochemical; settings: enzymatic inhibition, IDH1 R132H
Sequence of IDH1 R132H (O75874 whole entry R132H): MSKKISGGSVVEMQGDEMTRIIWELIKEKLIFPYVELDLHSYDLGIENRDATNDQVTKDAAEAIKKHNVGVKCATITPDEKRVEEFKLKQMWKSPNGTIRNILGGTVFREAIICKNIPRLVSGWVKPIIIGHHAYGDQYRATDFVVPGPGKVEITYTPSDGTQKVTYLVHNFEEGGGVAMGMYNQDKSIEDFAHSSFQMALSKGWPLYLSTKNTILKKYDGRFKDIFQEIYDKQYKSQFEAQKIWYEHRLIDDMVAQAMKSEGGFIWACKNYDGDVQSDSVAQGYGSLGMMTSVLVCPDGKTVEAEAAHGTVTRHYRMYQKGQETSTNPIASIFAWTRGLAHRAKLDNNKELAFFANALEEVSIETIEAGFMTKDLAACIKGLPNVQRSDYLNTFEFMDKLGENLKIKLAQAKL

Sequence of IDH1 R132C (O75874 whole entry R132C): as the sequence (O75874 whole entry R132H) above, with H132C counted along it

With CC(C)=Cc1c(C(=O)N2CCNCC2)cc(-c2nc(-c3ccc(Cl)cc3)cs2)c(=O)n1-c1cc(F)ccc1Cl [Compound 409] the IC50 [1] was < 300 nM and the IC50 [2] was < 300 nM.

With CCc1cccc(CC)c1-n1c(C=C(C)C)c(C(=O)N2CCNCC2C(=O)O)cc(-c2nc(-c3ccc(Cl)cc3)cs2)c1=O (centres unmarked) [Compound 410] the IC50 [1] was < 300 nM and the IC50 [2] was < 300 nM.

Compound COc1cccc(CN2CCN(C)CC2)c1-n1c2c(cc(-c3nc(-c4ccc(Cl)cc4)cs3)c1=O)C(=O)CCC2 [Compound 411] has an IC50 [1] of 5000 to 20000 nM and an IC50 [2] of 5000 to 20000 nM.

Work on CCc1cccc(CC)c1-n1c(CC(C)C)c(C(=O)N2CCNCC2)cc(-c2nc(Nc3ccc(Cl)cc3)c(C)s2)c1=O [Compound 412] yielded an IC50 [1] of 5000 to 20000 nM and an IC50 [2] of 5000 to 20000 nM.

C=Cc1sc(-c2cc(C(=O)N3CCNCC3)c(CC(C)C)n(-c3c(CC)cccc3CC)c2=O)nc1-c1ccc(Cl)cc1 [Compound 413] was tested, and the IC50 [1] was < 300 nM and the IC50 [2] was 300 to 1000 nM.

COc1cccc(OC)c1-n1c2c(cc(-c3nc(-c4ccc(Cl)cc4)cs3)c1=O)C(=O)CCC2 [Compound 414] gave an IC50 [1] of 1000 to 5000 nM and an IC50 [2] of 1000 to 5000 nM.

CCc1cccc(CC)c1-n1c(C=C(C)C)c(C(=O)N2CCNCC2)cc(-c2ccn(-c3ccc(OC4CC4)cc3)n2)c1=O [Compound 415] was tested, and the IC50 [1] was < 300 nM and the IC50 [2] was < 300 nM.

CCc1ncc(OC)cc1-n1c(C=C(C)C)c(C(=O)N2CCNCC2)cc(-c2nc(-c3ccc(Cl)cc3)cs2)c1=O [Compound 416] was tested, and the IC50 [1] was < 300 nM and the IC50 [2] was < 300 nM.

In the case of CCc1cccc(CC)c1-n1c(CC(C)C)c(C(=O)N2CCNCC2)cc(-c2ccnc(-c3ccc(Cl)cc3)n2)c1=O [Compound 417], the IC50 [1] is reported as 300 to 1000 nM and the IC50 [2] is reported as 300 to 1000 nM.

CCc1cccc(CC)c1-n1c(C=C(C)C)c(C(=O)N2CCNCC2)cc(-c2nc(-c3ccc(C(F)(F)F)nc3)cs2)c1=O [Compound 418] was tested, and the IC50 [1] was < 300 nM and the IC50 [2] was < 300 nM.

CCc1cccc(CC)c1-n1c(CC(C)C)c(C(=O)N2CCNCC2)cc(-c2nc(-c3ccc(C(=O)N(C)C)cc3)c(C)s2)c1=O [Compound 419] gave an IC50 [1] of 1000 to 5000 nM and an IC50 [2] of 1000 to 5000 nM.

In the case of CCOc1ccc(C)cc1-n1c(C=C(C)C)c(C(=O)N2CCNCC2)cc(-c2nc(-c3ccc(C(F)(F)F)nc3)cs2)c1=O [Compound 420], the IC50 [1] is reported as < 300 nM and the IC50 [2] is reported as < 300 nM.

COc1ccc(C(N)=O)cc1-n1c2c(cc(-c3nc(-c4ccc(Cl)cc4)cs3)c1=O)C(=O)CC(C)(C)C2 [Compound 423] showed an IC50 [1] of 1000 to 5000 nM and an IC50 [2] of 1000 to 5000 nM.

In the case of CCc1ccc(F)cc1-n1c(C=C(C)C)c(C(=O)N2CCNCC2)cc(-c2nc(-c3ccc(C(F)(F)F)nc3)cs2)c1=O [Compound 424], the IC50 [1] is reported as 300 to 1000 nM and the IC50 [2] is reported as < 300 nM.

CCc1cccc(CC)c1-n1c(C=C(C)C)c(C(=O)N2CCN[C@@H](C)C2)cc(-c2nc(-c3ccc(C(F)(F)F)cc3)cs2)c1=O [Compound 425] was tested, and the IC50 [1] was < 300 nM and the IC50 [2] was < 300 nM.

CCc1cccc(CC)c1-n1c(C=C(C)C)c(C(=O)N2CCNC(C(N)=O)C2)cc(-c2nc(-c3ccc(Cl)cc3)cs2)c1=O (centres unmarked) [Compound 426] was tested, and the IC50 [1] was < 300 nM and the IC50 [2] was < 300 nM.

In the case of CCc1ncc(OC)cc1-n1c(C=C(C)C)c(C(=O)N2CCNCC2)cc(-c2nc(-c3ccc(C(F)F)cc3)cs2)c1=O [Compound 427], the IC50 [1] is reported as 300 to 1000 nM and the IC50 [2] is reported as < 300 nM.

In the case of Cc1cccc(CO)c1-n1c2c(cc(-c3nc(-c4ccc(Cl)cc4)cs3)c1=O)C(=O)CCC2 [Compound 428], the IC50 [1] is reported as 1000 to 5000 nM and the IC50 [2] is reported as 1000 to 5000 nM.

In the case of CC1(C)CC(=O)c2cc(-c3nc(-c4ccc(Cl)cc4)cs3)c(=O)n(-c3cscc3C(N)=O)c2C1 [Compound 429], the IC50 [1] is reported as 5000 to 20000 nM and the IC50 [2] is reported as 5000 to 20000 nM.

Work on CCc1cccc(CC)c1-n1c(CC(C)C)c(C(=O)N2CCNCC2)cc(-c2nc(-c3ccc(Cl)cc3)c(C(F)(F)F)s2)c1=O [Compound 430] yielded an IC50 [1] of 300 to 1000 nM and an IC50 [2] of 300 to 1000 nM.

CCc1cccc(CC)c1-n1c(C=C(C)C)c(C(=O)N2CCNC3(CC3)C2)cc(-c2nc(-c3ccc(Cl)cc3)cs2)c1=O [Compound 431] was tested, and the IC50 [1] was < 300 nM and the IC50 [2] was < 300 nM.

With CCc1cccc(C)c1-n1c(C)c(C(=O)N2CCNCC2)cc(-c2nc(-c3ccc(Cl)cc3)cs2)c1=O [Compound 432] the IC50 [1] was 1000 to 5000 nM and the IC50 [2] was 300 to 1000 nM.

For CCc1cccc(CC)c1-n1c(CC2CCC2)c(C(=O)N2CCNCC2)cc(-c2nc(-c3ccc(Cl)cc3)cs2)c1=O [Compound 433], the IC50 [1] was < 300 nM and the IC50 [2] was < 300 nM.

In the case of CCc1cccc(CC)c1-n1c(C2CCC2)c(C(=O)N2CCNCC2)cc(-c2nc(-c3ccc(Cl)cc3)cs2)c1=O [Compound 434], the IC50 [1] is reported as < 300 nM and the IC50 [2] is reported as 300 to 1000 nM.

With CCc1cccc(CC)c1-n1c(C=C(C)C)c(C(=O)N2CCNCC2)cc(-c2nn(-c3ccc(Cl)cc3)cc2C(F)(F)F)c1=O [Compound 435] the IC50 [1] was 5000 to 20000 nM and the IC50 [2] was 1000 to 5000 nM.

For COc1ccncc1-n1c2c(cc(-c3nc(-c4ccc(Cl)cc4)cs3)c1=O)C(=O)CC(C)(C)C2 [Compound 436], the IC50 [1] was 5000 to 20000 nM and the IC50 [2] was > 20000 nM.

CC(C)=Cc1c(C(=O)N2CCNCC2)cc(-c2nc(-c3ccc(Cl)cc3)cs2)c(=O)n1-c1ccccc1C [Compound 437] was tested, and the IC50 [1] was 300 to 1000 nM and the IC50 [2] was < 300 nM.

For COc1ccc(C)cc1-n1c(C=C(C)C)c(C(=O)N2CCNCC2)cc(-c2nc(-c3ccc(Cl)cc3)cs2)c1=O [Compound 438], the IC50 [1] was < 300 nM and the IC50 [2] was < 300 nM.

Cc1nonc1-n1c2c(cc(-c3nc(-c4ccc(Cl)cc4)cs3)c1=O)C(=O)CC(C)(C)C2 [Compound 439] was tested, and the IC50 [1] was 1000 to 5000 nM and the IC50 [2] was > 20000 nM.

CN1CCN(Cc2ccccc2-n2c3c(cc(-c4nc(-c5ccc(Cl)cc5)cs4)c2=O)C(=O)CCC3)CC1 [Compound 440] was tested, and the IC50 [1] was 5000 to 20000 nM and the IC50 [2] was 5000 to 20000 nM.

In the case of CC1(C)CC(=O)c2cc(-c3nc(-c4ccc(Cl)cc4)cs3)c(=O)n(-c3ccc(Cl)cc3Cl)c2C1 [Compound 441], the IC50 [1] is reported as 5000 to 20000 nM and the IC50 [2] is reported as > 20000 nM.

For CCc1cccc(CC)c1-n1c(C=C(C)C)c(C(=O)N2CCNCC23COC3)cc(-c2nc(-c3ccc(Cl)cc3)cs2)c1=O [Compound 443], the IC50 [1] was < 300 nM and the IC50 [2] was 300 to 1000 nM.

With CCOc1cccc(OCC)c1-n1c2c(cc(-c3nc(-c4ccc(Cl)cc4)cs3)c1=O)C(=O)CCC2 [Compound 444] the IC50 [1] was 300 to 1000 nM and the IC50 [2] was 300 to 1000 nM.

For CN1CCN(Cc2cccc(-n3c4c(cc(-c5nc(-c6ccc(Cl)cc6)cs5)c3=O)C(=O)CC(C)(C)C4)c2)CC1 [Compound 445], the IC50 [1] was 5000 to 20000 nM and the IC50 [2] was 5000 to 20000 nM.

Work on CCc1cccc(CC)c1-n1c(C2CCOCC2)c(C(=O)N2CCNCC2)cc(-c2nc(-c3ccc(Cl)cc3)cs2)c1=O [Compound 446] yielded an IC50 [1] of 300 to 1000 nM and an IC50 [2] of 1000 to 5000 nM.

CCc1cccc(CC)c1-n1c(C=C(C)C)c(C(=O)N2C[C@H]3C[C@@H]2CN3)cc(-c2nc(-c3ccc(Cl)cc3)cs2)c1=O [Compound 447] was tested, and the IC50 [1] was < 300 nM and the IC50 [2] was < 300 nM.

In the case of CCc1cccc(Cl)c1-n1c(C=C(C)C)c(C(=O)N2CCNCC2)cc(-c2nc(-c3ccc(Cl)cc3)cs2)c1=O [Compound 448], the IC50 [1] is reported as < 300 nM and the IC50 [2] is reported as < 300 nM.

In the case of CC(C)=Cc1c(C(=O)N2CCNCC2)cc(-c2nc(-c3ccc(Cl)cc3)cs2)c(=O)n1-c1ccccc1Cl [Compound 449], the IC50 [1] is reported as < 300 nM and the IC50 [2] is reported as < 300 nM.

With Cc1ccc(-n2c3c(cc(-c4nc(-c5ccc(Cl)cc5)cs4)c2=O)C(=O)CCC3)c(C)c1 [Compound 450] the IC50 [1] was > 20000 nM and the IC50 [2] was > 20000 nM.

O=C1CCCc2c1cc(-c1nc(-c3ccc(Cl)cc3)cs1)c(=O)n2-c1ccccc1C(F)(F)F [Compound 451] gave an IC50 [1] of 1000 to 5000 nM and an IC50 [2] of 300 to 1000 nM.
